Laboratory results as given in EP4514928B1, “USE OF AN ANTIOXIDANT FOR REDUCING AND/OR PREVENTING THE TOXICITY OF A LUBRICANT COMPOSITION” (priority 2022, dated 2023).

Experiments:
vie aquatique = conditions: long-term effects; cited from earlier work
Planaires adultes entier = conditions: adult planarians, 12 days, checks at 7 and 12 days, 0,22 mg/L - 22 mg/L; for Concentration à partir de laquelle une mortalité significative du planaire est observée: according to Zhang et al. 2019; for Concentration à partir de laquelle sont observés des troubles du comportement potentiellement liés à des troubles cognitifs du planaire: adhérence, vitesse de déplacement, repos, phototaxie, scrunching
Protocol: La méthodologie utilisée est la suivante Tous les composés sont fournis sous forme de poudres. Un volume approprié de DMSO 100 % (Sigma) a été ajouté, comme indiqué sur les tubes, pour obtenir une solution mère à 4,4 mg/ml (soit 200 fois plus concentrée que la concentration maximale de test).

[1] = cited from earlier work

Compound	Toxicité (Informations ECHA - 2021): vie aquatique (écotoxique) (vie aquatique)	Concentration à partir de laquelle une mortalité significative du planaire est observée (Planaires adultes entier)	Concentration à partir de laquelle sont observés des troubles du comportement potentiellement liés à des troubles cognitifs du planaire (Planaires adultes entier)	Toxicité (Informations ECHA - 2021): toxicité aiguë ([1]; if swallowed)	Toxicité (Informations ECHA - 2021): dommages aux organes ([1]; prolonged or repeated exposure)
c1ccc(Nc2cccc3ccccc23)cc1 [compound 19, N-phénylnaphthalène-1-amine]	Est très toxique pour la vie aquatique avec des effets à long terme (écotoxique)	6,9 mg/L	2,2 -3,9 mg/L	est nocif s'il est avalé (toxicité aiguë)	peut causer des dommages aux organes par exposition prolongée ou répétée
CC(C)CC(C)Nc1ccc(Nc2ccccc2)cc1 (centres unmarked) [compound 22, N-(1,3-Diméthylbutyl)-N'-phényl-p-phénylènediamine]	–	4,8 mg/L	1,5 mg/L	–	–
Bis(nonylphényl)amine [Irganox® L67]	Est nocif pour la vie aquatique avec des effets à long terme (écotoxique) https://echa.europa.eu/fr/substance-information/-/substanceinfo/100.048.393 Evaluation en 2021 pour suspicion de Mutagénicité et PBT	–	–	–	–
